Measured values from PubChem BioAssay (NCI).
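Each compound was tested at five concentrations against cells in 96-well plates for 48 hours. TGI marks complete inhibition of growth.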

How the values were obtained:
Test in all cases: DTP human tumour cell line panel, 48 h
[1] = system: HT29 colon
[2] = system: UACC-257 melanoma
[3] = system: M14 melanoma
[4] = system: TK-10 renal
[5] = system: HCT-116 colon
[6] = system: MDA-N
[7] = system: ACHN renal
[8] = system: NCI/ADR-RES ovarian
[9] = system: UACC-62 melanoma
[10] = system: NCI-H460 lung
[11] = system: A549 NSCLC
[12] = system: IGROV1 ovarian
[13] = system: LOX IMVI melanoma
[14] = system: NCI-H23 lung
[15] = system: DU-145 prostate
[16] = system: UO-31 renal
[17] = system: MDA-MB-231 breast
[18] = system: SN12C renal
[19] = system: SF-295 CNS
[20] = system: MOLT-4 leukemia
[21] = system: SR leukemia
[22] = system: SK-OV-3 ovarian
[23] = system: SW-620 colon
[24] = system: MDA-MB-435
[25] = system: OVCAR-4 ovarian
[26] = system: U251 CNS
[27] = system: MCF7 breast
[28] = system: PC-3 prostate
[29] = system: HS 578T breast
[30] = system: SK-MEL-28 melanoma
[31] = system: RPMI-8226 leukemia
[32] = system: K-562 leukemia
[33] = system: OVCAR-8 ovarian
[34] = system: MALME-3M melanoma
[35] = system: HCC-2998 colon
[36] = system: SNB-19 CNS
[37] = system: SNB-75 CNS
[38] = system: OVCAR-3 ovarian
[39] = system: SF-268 CNS
[40] = system: CAKI-1 renal
[41] = system: SK-MEL-2 melanoma
[42] = system: KM12 colon
[43] = system: HOP-62 NSCLC
[44] = system: HL-60(TB) leukemia
[45] = system: SK-MEL-5 melanoma
[46] = system: OVCAR-5 ovarian
[47] = system: CCRF-CEM leukemia
[48] = system: 786-0 renal
[49] = system: NCI-H522 lung
[50] = system: EKVX NSCLC
[51] = system: SF-539 CNS
[52] = system: COLO 205 colon
[53] = system: NCI-H226 lung
[54] = system: T-47D breast
[55] = system: RXF 393 renal
[56] = system: HCT-15 colon
[57] = system: HOP-92 NSCLC
[58] = system: A498 renal

C=C1OC(=O)[C@]2([C@@H](/C=C/C)C=CC(=O)[C@H]2O)[C@@H]1O
TGI [1]: > 100 µM | TGI [2]: > 100 µM | TGI [3]: > 100 µM | TGI [4]: > 100 µM | TGI [5]: > 100 µM | TGI [6]: > 100 µM | TGI [7]: > 100 µM | TGI [8]: > 100 µM | TGI [9]: > 100 µM | TGI [10]: > 100 µM | TGI [11]: > 100 µM | TGI [12]: > 100 µM | TGI [13]: > 100 µM | TGI [14]: > 100 µM | TGI [15]: > 100 µM | TGI [16]: > 100 µM | TGI [17]: > 100 µM | TGI [18]: > 100 µM | TGI [19]: > 100 µM | TGI [20]: > 100 µM | TGI [21]: > 100 µM | TGI [22]: > 100 µM | TGI [23]: > 100 µM | TGI [24]: > 100 µM | TGI [25]: > 100 µM | TGI [26]: > 100 µM | TGI [27]: > 100 µM | TGI [28]: > 100 µM | TGI [29]: > 100 µM | TGI [30]: > 100 µM | TGI [31]: > 100 µM | TGI [32]: > 100 µM | TGI [33]: > 100 µM | TGI [34]: > 100 µM | TGI [35]: > 100 µM | TGI [36]: > 100 µM | TGI [37]: > 100 µM | TGI [38]: > 100 µM | TGI [39]: > 100 µM | TGI [40]: > 100 µM | TGI [41]: > 100 µM | TGI [42]: > 100 µM | TGI [43]: > 100 µM | TGI [44]: > 100 µM | TGI [45]: > 100 µM | TGI [46]: > 100 µM | TGI [47]: > 100 µM | TGI [48]: > 100 µM | TGI [49]: > 100 µM | TGI [50]: > 100 µM | TGI [51]: > 100 µM | TGI [52]: > 100 µM | TGI [53]: > 100 µM | TGI [54]: > 100 µM | TGI [55]: > 100 µM | TGI [56]: > 100 µM

Cc1ccc(S(=O)(=O)N/N=C2\CC3C4C=CC3C2C4)cc1 (stereo unspecified)
TGI [1]: > 100 µM | TGI [2]: > 100 µM | TGI [3]: > 100 µM | TGI [4]: > 100 µM | TGI [5]: > 100 µM | TGI [6]: > 100 µM | TGI [7]: > 100 µM | TGI [8]: > 100 µM | TGI [9]: > 100 µM | TGI [10]: > 100 µM | TGI [11]: > 100 µM | TGI [12]: > 100 µM | TGI [13]: > 100 µM | TGI [14]: > 100 µM | TGI [15]: > 100 µM | TGI [16]: 40.2 µM | TGI [17]: > 100 µM | TGI [18]: > 100 µM | TGI [19]: > 100 µM | TGI [20]: > 100 µM | TGI [22]: > 100 µM | TGI [23]: > 100 µM | TGI [24]: > 100 µM | TGI [25]: > 100 µM | TGI [26]: > 100 µM | TGI [27]: > 100 µM | TGI [57]: > 100 µM | TGI [28]: > 100 µM | TGI [29]: > 100 µM | TGI [30]: > 100 µM | TGI [58]: > 100 µM | TGI [32]: > 100 µM | TGI [33]: > 100 µM | TGI [34]: > 100 µM | TGI [35]: > 100 µM | TGI [36]: > 100 µM | TGI [38]: > 100 µM | TGI [39]: > 100 µM | TGI [40]: > 100 µM | TGI [41]: > 100 µM | TGI [42]: > 100 µM | TGI [43]: > 100 µM | TGI [44]: > 100 µM | TGI [45]: > 100 µM | TGI [46]: > 100 µM | TGI [47]: > 100 µM | TGI [48]: > 100 µM | TGI [49]: > 100 µM | TGI [50]: > 100 µM | TGI [51]: > 100 µM | TGI [52]: > 100 µM | TGI [53]: > 100 µM | TGI [54]: > 100 µM | TGI [55]: > 100 µM | TGI [56]: > 100 µM
